Measured values as given in patent US10513521B2, “Compositions and methods for inhibiting BMP” (The Brigham and Women's Hospital, Inc., priority 2014, dated 2019).
pIC50: −log10 of the molar value. Where a name gives a salt, the structure may show the parent alone.

What was measured:
ALK6 = ALK6 (Homo sapiens, UniProt O00238); assay: TR-FRET enzymatic ALK kinase assay, ALK6
Method: (§1) Briefly, the ALKs enzymatic assay was initiated by dispense 2.5 μl enzyme in 1× kinase reaction buffer. The assay plate was then added with compounds followed by incubation at room temperature for 10 minutes. Then 2.5 μl/well substrate was added.

ALK1 = ALK1 (Homo sapiens, UniProt P37023); assay: TR-FRET enzymatic ALK kinase assay, ALK1
Method: as §1

ALK2 = molecular target: T1, ALK2 (Homo sapiens, UniProt Q04771); assay: TR-FRET enzymatic ALK kinase assay, ALK2
T1 sequence (Q04771 21-509): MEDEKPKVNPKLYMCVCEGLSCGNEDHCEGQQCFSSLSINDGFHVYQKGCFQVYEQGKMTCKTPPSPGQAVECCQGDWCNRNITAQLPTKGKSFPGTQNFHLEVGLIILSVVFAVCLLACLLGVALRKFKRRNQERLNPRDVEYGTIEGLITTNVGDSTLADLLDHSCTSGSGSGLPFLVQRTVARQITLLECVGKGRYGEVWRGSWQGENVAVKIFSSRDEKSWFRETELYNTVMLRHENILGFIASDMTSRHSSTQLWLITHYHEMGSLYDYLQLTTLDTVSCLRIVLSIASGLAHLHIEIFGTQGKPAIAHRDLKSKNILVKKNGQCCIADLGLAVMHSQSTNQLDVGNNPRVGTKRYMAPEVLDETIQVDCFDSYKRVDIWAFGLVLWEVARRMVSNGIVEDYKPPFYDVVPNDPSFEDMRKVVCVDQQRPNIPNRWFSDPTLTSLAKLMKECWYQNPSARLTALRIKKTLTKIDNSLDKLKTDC
Method: as §1

ALK3 = ALK3 (Homo sapiens, UniProt P36894); assay: TR-FRET enzymatic ALK kinase assay, ALK3
Method: as §1

ALK4 = molecular target: T2, ALK4 (Homo sapiens, UniProt P36896); assay: TR-FRET enzymatic ALK kinase assay, ALK4
T2 sequence (P36896 24-505): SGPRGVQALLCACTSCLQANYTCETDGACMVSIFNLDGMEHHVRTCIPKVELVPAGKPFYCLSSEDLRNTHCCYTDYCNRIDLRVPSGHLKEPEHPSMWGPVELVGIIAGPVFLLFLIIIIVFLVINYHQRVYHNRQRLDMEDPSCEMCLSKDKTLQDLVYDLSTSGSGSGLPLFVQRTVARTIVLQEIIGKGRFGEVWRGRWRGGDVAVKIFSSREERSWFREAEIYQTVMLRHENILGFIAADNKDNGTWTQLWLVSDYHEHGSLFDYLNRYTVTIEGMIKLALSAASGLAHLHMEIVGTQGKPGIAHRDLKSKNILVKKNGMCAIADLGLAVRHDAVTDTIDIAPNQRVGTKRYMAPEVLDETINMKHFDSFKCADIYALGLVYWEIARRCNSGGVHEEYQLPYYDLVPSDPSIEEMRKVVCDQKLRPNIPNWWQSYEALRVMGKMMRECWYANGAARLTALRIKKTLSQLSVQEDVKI
Method: as §1

ALK5 = molecular target: T3, ALK5 (Homo sapiens, UniProt P36897); assay: TR-FRET enzymatic ALK kinase assay, ALK5
T3 sequence (P36897 34-503): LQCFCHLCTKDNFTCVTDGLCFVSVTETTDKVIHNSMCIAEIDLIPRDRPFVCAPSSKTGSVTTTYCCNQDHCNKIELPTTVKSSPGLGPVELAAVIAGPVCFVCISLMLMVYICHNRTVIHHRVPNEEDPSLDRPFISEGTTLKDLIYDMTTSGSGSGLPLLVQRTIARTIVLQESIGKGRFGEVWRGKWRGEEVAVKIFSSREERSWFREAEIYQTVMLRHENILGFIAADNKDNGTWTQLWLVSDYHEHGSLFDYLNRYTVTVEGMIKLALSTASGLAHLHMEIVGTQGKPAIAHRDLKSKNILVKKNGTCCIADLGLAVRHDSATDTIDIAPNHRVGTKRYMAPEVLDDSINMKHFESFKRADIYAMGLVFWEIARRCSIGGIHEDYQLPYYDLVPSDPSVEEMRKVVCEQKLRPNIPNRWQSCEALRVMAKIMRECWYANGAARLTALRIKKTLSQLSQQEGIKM
Method: Six ALK kinase enzyme assays were developed for determination of compound activities on ALK1, ALK2, ALK3, ALK4, ALK5 and ALK6.
as §1

Sequence of ALK1 (P37023 22-503): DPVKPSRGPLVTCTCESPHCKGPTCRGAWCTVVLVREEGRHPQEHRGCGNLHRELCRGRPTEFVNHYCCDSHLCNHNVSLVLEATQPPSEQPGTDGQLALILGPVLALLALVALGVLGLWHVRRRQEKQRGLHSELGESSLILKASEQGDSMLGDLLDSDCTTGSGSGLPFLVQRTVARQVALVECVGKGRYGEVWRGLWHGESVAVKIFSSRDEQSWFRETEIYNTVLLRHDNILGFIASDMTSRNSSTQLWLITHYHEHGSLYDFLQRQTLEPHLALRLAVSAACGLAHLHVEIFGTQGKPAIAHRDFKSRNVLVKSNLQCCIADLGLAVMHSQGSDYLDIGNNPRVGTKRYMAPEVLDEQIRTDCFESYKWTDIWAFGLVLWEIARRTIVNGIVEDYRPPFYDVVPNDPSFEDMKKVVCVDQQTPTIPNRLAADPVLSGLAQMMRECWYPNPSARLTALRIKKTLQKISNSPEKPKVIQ
Sequence of ALK6 (O00238 14-502): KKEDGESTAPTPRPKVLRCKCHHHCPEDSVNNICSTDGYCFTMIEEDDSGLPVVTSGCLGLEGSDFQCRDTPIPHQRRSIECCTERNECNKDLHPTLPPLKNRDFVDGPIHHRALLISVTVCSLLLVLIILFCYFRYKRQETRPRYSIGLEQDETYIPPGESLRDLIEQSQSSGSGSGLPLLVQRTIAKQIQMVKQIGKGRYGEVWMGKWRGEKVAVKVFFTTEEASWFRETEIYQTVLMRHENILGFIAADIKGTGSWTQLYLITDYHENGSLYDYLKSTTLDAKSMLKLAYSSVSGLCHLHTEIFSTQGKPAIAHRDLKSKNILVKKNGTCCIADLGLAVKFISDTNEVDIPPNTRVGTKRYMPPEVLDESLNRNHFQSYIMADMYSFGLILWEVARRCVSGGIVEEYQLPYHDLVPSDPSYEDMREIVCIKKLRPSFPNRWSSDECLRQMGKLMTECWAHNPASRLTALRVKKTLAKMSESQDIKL
Sequence of ALK3 (P36894 24-532): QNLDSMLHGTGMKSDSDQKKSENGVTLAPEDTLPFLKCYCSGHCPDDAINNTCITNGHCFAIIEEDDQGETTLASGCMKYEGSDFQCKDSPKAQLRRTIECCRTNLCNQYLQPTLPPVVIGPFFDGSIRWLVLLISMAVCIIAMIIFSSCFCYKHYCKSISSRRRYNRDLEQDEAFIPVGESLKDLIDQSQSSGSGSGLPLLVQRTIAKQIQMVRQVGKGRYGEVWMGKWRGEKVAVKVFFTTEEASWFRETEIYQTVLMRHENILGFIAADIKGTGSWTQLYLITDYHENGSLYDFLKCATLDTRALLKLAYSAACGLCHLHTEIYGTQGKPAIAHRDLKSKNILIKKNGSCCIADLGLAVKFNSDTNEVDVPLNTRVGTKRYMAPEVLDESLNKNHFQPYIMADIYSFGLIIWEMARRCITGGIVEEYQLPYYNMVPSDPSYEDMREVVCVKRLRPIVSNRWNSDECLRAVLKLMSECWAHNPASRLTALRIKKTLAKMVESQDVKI

| pIC50 (ALK6) | pIC50 (ALK1) | pIC50 (ALK2) | pIC50 (ALK3) | pIC50 (ALK4) | pIC50 (ALK5) | activity in the higher ATP concentrations (concentration-response curves) (ALK1; ALK1, in the presence of 10, 100, or 1,000 µM ATP, FIG. 3) | activity in the higher ATP concentrations (concentration-response curves) (ALK2; ALK2, in the presence of 10, 100, or 1,000 µM ATP, FIG. 3) | Compound |
| --- | --- | --- | --- | --- | --- | --- | --- | --- |
| 6.21 | 6.96 | 7.72 | 6.65 | 5.39 | 4.87 |  |  | CC(=O)c1ccc(-c2cnn3cc(-c4ccc(N5[C@H](C)CNC[C@@H]5C)cc4)cnc23)c2ccccc12 [Compound 27, 1-(4-(6-(4-((2R,6S)-2,6-dimethylpiperazin-1-yl)phenyl)pyrazolo[1,5-a]pyrimidin-3-yl)naphthalen-1-yl)ethanone] |
| 6.95 | 6.88 | 7.64 | 6.77 |  |  |  |  | C[C@@H]1CNC[C@H](C)N1c1ccc(-c2cnc3c(-c4cccc5c(-c6nn[nH]n6)cccc45)cnn3c2)cc1 [Compound 28, 3-(5-(1H-tetrazol-5-yl)naphthalen-1-yl)-6-(4-((2R,6S)-2,6-dimethylpiperazin-1-yl)phenyl)pyrazolo[1,5-a]pyrimidine] |
| 6.53 | 7.70 | 7.85 | 7.08 | 5.45 | 5.27 |  |  | CC(O)c1ccc(-c2cnn3cc(-c4ccc(N5[C@H](C)CNC[C@@H]5C)cc4)cnc23)c2ccccc12 (stereo partly drawn) [Compound 29, 1-(4-(6-(4-((2R,6S)-2,6-dimethylpiperazin-1-yl)phenyl)pyrazolo[1,5-a]pyrimidin-3-yl)naphthalen-1-yl)ethanol] |
| 5.62 | 6.52 | 6.69 | 5.79 | 5.10 | 4.64 |  |  | C[C@@H]1CNC[C@H](C)N1c1ccc(-c2cnc3c(-c4ccc(C(=O)C(F)(F)F)c5ccccc45)cnn3c2)cc1 [Compound 30, 1-(4-(6-(4-((2R,6S)-2,6-dimethylpiperazin-1-yl)phenyl)pyrazolo[1,5-a]pyrimidin-3-yl)naphthalen-1-yl)-2,2,2-trifluoroethanone] |
| 5.97 | 7.29 | 7.77 | 6.57 | 5.18 | 4.22 |  |  | C[C@@H]1CNC[C@H](C)N1c1ccc(-c2cnc3c(-c4cccc5ccccc45)cnn3c2)cc1 [Compound 31, 6-(4-((2R,6S)-2,6-dimethylpiperazin-1-yl)phenyl)-3-(naphthalen-1-yl)pyrazolo[1,5-a]pyrimidine] |
| 4.79 | 5.82 | 6.44 | 5.11 | 4.79 | 4.39 |  |  | CC(O)c1cccc2c(-c3cnn4cc(-c5ccc(N6[C@H](C)CNC[C@@H]6C)cc5)cnc34)cccc12 (stereo partly drawn) [Compound 33, 1-(5-(6-(4-((2R,6S)-2,6-dimethylpiperazin-1-yl)phenyl)pyrazolo[1,5-a]pyrimidin-3-yl)naphthalen-1-yl)ethanol] |
| 4.76 | 5.88 | 6.60 | 5.31 | 4.90 | 4.73 |  |  | COc1ccc2ccccc2c1-c1cnn2cc(-c3ccc(N4[C@H](C)CNC[C@@H]4C)cc3)cnc12 [Compound 34, 6-(4-((2R,6S)-2,6-dimethylpiperazin-1-yl)phenyl)-3-(2-methoxynaphthalen-1-yl)pyrazolo[1,5-a]pyrimidine] |
|  | 5.02 | 5.52 |  |  |  |  |  | Cc1cc(S(N)(=O)=O)ccc1-c1cnn2cc(-c3ccc(N4[C@H](C)CNC[C@@H]4C)cc3)cnc12 [Compound 36, 4-(6-(4-((2R,6S)-2,6-dimethylpiperazin-1-yl)phenyl)pyrazolo[1,5-a]pyrimidin-3-yl)-3-methylbenzenesulfonamide] |
| < 5.00 | < 5.00 | 5.49 | < 5.00 | < 5.00 | < 5.00 |  |  | C[C@@H]1CNC[C@H](C)N1c1ccc(-c2cnc3c(-c4cccc5c(S(=O)(=O)N(C)C)cccc45)cnn3c2)cc1 [Compound 40, 5-(6-(4-((2R,6S)-2,6-dimethylpiperazin-1-yl)phenyl)pyrazolo[1,5-a]pyrimidin-3-yl)-N,N-dimethylnaphthalene-1-sulfonamide] |

The remaining lines, values behind:

| Compound | pIC50 (ALK6) | pIC50 (ALK1) | pIC50 (ALK2) | pIC50 (ALK3) | pIC50 (ALK4) | pIC50 (ALK5) | activity in the higher ATP concentrations (concentration-response curves) (ALK1; ALK1, in the presence of 10, 100, or 1,000 µM ATP, FIG. 3) | activity in the higher ATP concentrations (concentration-response curves) (ALK2; ALK2, in the presence of 10, 100, or 1,000 µM ATP, FIG. 3) |
| --- | --- | --- | --- | --- | --- | --- | --- | --- |
| Cc1cc(-c2cnn3cc(-c4ccc(N5[C@H](C)CNC[C@@H]5C)cc4)cnc23)ccc1S(N)(=O)=O [Compound 37, 4-(6-(4-((2R,6S)-2,6-dimethylpiperazin-1-yl)phenyl)pyrazolo[1,5-a]pyrimidin-3-yl)-2-methylbenzenesulfonamide] |  | 6.09 |  |  |  |  |  |  |
| C[C@@H]1CNC[C@H](C)N1c1ccc(-c2cnc3c(-c4ccc(S(N)(=O)=O)cc4)cnn3c2)cc1 [Compound 38, 4-(6-(4-((2R,6S)-2,6-dimethylpiperazin-1-yl)phenyl)pyrazolo[1,5-a]pyrimidin-3-yl)benzenesulfonamide] |  | 5.75 |  |  |  |  |  |  |
| CC1CCN(c2ccc(-c3cnc4c(-c5ccc(S(N)(=O)=O)c6ccccc56)cnn4c3)cn2)CC1 [Compound 47, 4-(6-(6-(4-methylpiperidin-1-yl)pyridin-3-yl)pyrazolo[1,5-a]pyrimidin-3-yl)naphthalene-1-sulfonamide] | < 5.00 | 5.24 | 5.54 | < 5.00 | < 5.00 | < 5.00 |  |  |
| C[C@@H]1CNC[C@H](C)N1c1ccc(-c2cnc3c(-c4ccc(F)c(-c5nnn[nH]5)c4)cnn3c2)cc1 [Compound 72, 6-(4-((2R,6S)-2,6-dimethylpiperazin-1-yl)phenyl)-3-(4-fluoro-3-(1H-tetrazol-5-yl)phenyl)pyrazolo[1,5-a]pyrimidine] | 6.48 | 6.92 | 7.80 | 6.66 | < 5.00 | < 5.00 |  |  |
| CS(=O)(=O)c1cccc(-c2cnn3cc(-c4ccc(CC5CCNCC5)cc4)cnc23)c1 [Compound 126, 3-(3-(methylsulfonyl)phenyl)-6-(4-(piperidin-4-ylmethyl)phenyl)pyrazolo[1,5-a]pyrimidine. TFA] | < 5.00 | 6.05 | 6.55 | < 5.00 | < 5.00 | < 5.00 |  |  |
| CC(O)c1cccc(-c2cnn3cc(-c4ccc(C(F)(F)CN5CCCCC5)cc4)cnc23)c1 (centres unmarked) [Compound 127, 1-(3-(6-(4-(1,1-difluoro-2-(piperidin-1-yl)ethyl)phenyl)pyrazolo[1,5-a]pyrimidin-3-yl)phenyl)ethanol] | < 5.00 | 5.32 | 5.77 | < 5.00 | < 5.00 | < 5.00 |  |  |
| CS(=O)(=O)c1cccc(-c2cnn3cc(-c4ccc(CCN5CCCC5)cc4)cnc23)c1 [Compound 128, 3-(3-(methylsulfonyl)phenyl)-6-(4-(2-(pyrrolidin-1-yl)ethyl)phenyl)pyrazolo[1,5-a]pyrimidine] | < 5.00 | 6.41 | 7.10 | 5.20 | < 5.00 | < 5.00 |  |  |
| CC(N)c1ccc(-c2cnc3c(-c4ccc(S(N)(=O)=O)c5ccccc45)cnn3c2)cc1 (centres unmarked) [Compound 189, 4-(6-(4-(1-aminoethyl)phenyl)pyrazolo[1,5-a]pyrimidin-3-yl)naphthalene-1-sulfonamide] | < 5.00 | 6.46 |  |  | < 5.00 | < 5.00 |  |  |
| c1ccc2c(-c3cnn4cc(-c5ccc(N6CCNCC6)cc5)cnc34)ccnc2c1 [Compound A, reference compound] |  |  |  |  |  |  | reduced | reduced |
